Test results reported in the supplement of paper PMC11061612.

Legend:
Experiment in all cases: Bliss excess, mean over the matrix (fraction); higher = more synergy
A375 (Melanoma) = tested on: A375 (Melanoma)
How it was run: (§1)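 After 24 hours at 37°C and 5% CO2 in 1536-well plates, cells in DMEM/F12 or RPMI plus 10% FBS received two-drug dose matrices for 72 hours. Viability came from CellTiter-Glo 2.0 luminescence and was scaled as inhibition, anchored at 0 by vehicle wells and at 1 by blank wells. Combination Emax is taken as the second-highest inhibition in the matrix, and Bliss excess as the observed combination effect less EA + EB − EA·EB, with EA and EB the single-agent effects.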

[1] = tested on: ATN-1 (T-Lymphoblastic Leukemia)
How it was run: as §1

[2] = tested on: BT-474 (Breast Carcinoma)
How it was run: as §1

C32 (Melanoma) = tested on: C32 (Melanoma)
How it was run: as §1

[3] = tested on: CAL-85-1 (Breast Carcinoma)
How it was run: as §1

GCIY (Gastric Carcinoma) = tested on: GCIY (Gastric Carcinoma)
How it was run: as §1

[4] = tested on: GRANTA-519 (B-Cell Non-Hodgkin's Lymphoma)
How it was run: as §1

[5] = tested on: HT-1197 (Bladder Carcinoma)
How it was run: as §1

HT-144 (Melanoma) = tested on: HT-144 (Melanoma)
How it was run: as §1

[6] = tested on: JJN-3 (Plasma Cell Myeloma)
How it was run: as §1

[7] = tested on: KNS-62 (Squamous Cell Lung Carcinoma)
How it was run: as §1

[8] = tested on: L-363 (Plasma Cell Myeloma)
How it was run: as §1

[9] = tested on: NCI-H1048 (Small Cell Lung Carcinoma)
How it was run: as §1

[10] = tested on: NCI-H1435 (Non-Small Cell Lung Carcinoma)
How it was run: as §1

[11] = tested on: NCI-H1975 (Lung Adenocarcinoma)
How it was run: as §1

[12] = tested on: NCI-H2009 (Lung Adenocarcinoma)
How it was run: as §1

[13] = tested on: NTERA-2-cl-D1 (Other Solid Carcinomas)
How it was run: as §1

[14] = tested on: OCI-M1 (Acute Myeloid Leukemia)
How it was run: as §1

SK-N-DZ (Neuroblastoma) = tested on: SK-N-DZ (Neuroblastoma)
How it was run: as §1

[15] = tested on: TK (B-Cell Non-Hodgkin's Lymphoma)
How it was run: as §1

SMILES | Bliss excess (A375 (Melanoma)) | Bliss excess [1] | Bliss excess [2] | Bliss excess (C32 (Melanoma)) | Bliss excess [3] | Bliss excess (GCIY (Gastric Carcinoma)) | Bliss excess [4] | Bliss excess [5] | Bliss excess (HT-144 (Melanoma)) | Bliss excess [6] | Bliss excess [7] | Bliss excess [8] | Bliss excess [9] | Bliss excess [10] | Bliss excess [11] | Bliss excess [12] | Bliss excess [13] | Bliss excess [14] | Bliss excess (SK-N-DZ (Neuroblastoma)) | Bliss excess [15]
Cc1cc2ncnn2cc1Nc1ncc2c(n1)n(C1CCOCC1)c(=O)n2C [AZD7648] + C[C@@H]1COCCN1C2=NC(=NC(=C2)C3(CC3)[S@](=N)(=O)C)C4=C5C=CNC5=NC=C4 [AZD6738] (first compound max 10 µM, 7x7, partner max 10 µM) | 0.0301 | 0.0406 | 0.0245 | -0.0021 | 0.0307 | 0.0524 | -0.0479 | -0.0226 | 0.0349 | -0.0051 | 0.0778 | 0.0096 | 0.0425 | 0.0536 | 0.015 | 0.0494 | 0.0533 | 0.0125 | -0.018 | -0.0185
Cc1cc2ncnn2cc1Nc1ncc2c(n1)n(C1CCOCC1)c(=O)n2C [AZD7648] + O=C(c1cc(Cc2n[nH]c(=O)c3ccccc23)ccc1F)N1CCN(C(=O)C2CC2)CC1 [Olaparib] (first compound max 10 µM, 7x7, partner max 10 µM) | -0.0339 | -0.031 | -0.0457 | -0.0375 | -0.057 | -0.0554 | -0.0416 | 0.0045 | -0.0519 | -0.008 | -0.0507 | 0.0266 | -0.0593 | -0.0366 | 0.0135 | -0.0372 | 0.0101 | -0.0248 | 0.0102 | 0.0001
Cc1nc(Nc2ncc(C(=O)Nc3c(C)cccc3Cl)s2)cc(N2CCN(CCO)CC2)n1 [Dasatinib] + CC(=O)Nc1cccc(-n2c(=O)n(C3CC3)c(=O)c3c(Nc4ccc(I)cc4F)n(C)c(=O)c(C)c32)c1 [Trametinib] (first compound max 2 µM, 7x7, partner max 1 µM) | 0.0736 | -0.089 | -0.0493 | -0.0198 | 0.0959 | 0.052 | -0.0711 | -0.0524 | -0.0825 | 0.0148 | -0.0815 | -0.0221 | -0.0669 | 0.0975 | 0.0302 | 0.0589 | 0.0638 | 0.0346 | -0.0332 | -0.0386
COc1cc2ncnc(Nc3ccc(F)c(Cl)c3)c2cc1OCCCN1CCOCC1 [Gefitinib] + CC(C)n1c(=O)n(C)c2cnc3cc(F)c(-c4ccc(OCCCN5CCCCC5)nc4)cc3c21 [AZD1390] (first compound max 10 µM, 7x7, partner max 0.3 µM) | -0.0544 | -0.0377 | -0.0866 | -0.0368 | -0.0236 | 0.0145 | -0.0689 | -0.0549 | -0.0682 | -0.0185 | -0.0783 | -0.0135 | -0.0556 | -0.0289 | -0.0676 | -0.0519 | -0.0643 | -0.065 | -0.0375 | -0.0495
N#Cc1cnc(Nc2cc(NC[C@H]3CNCCO3)c(C(F)(F)F)cn2)cn1 [SRA737] + C=CCn1c(=O)c2cnc(Nc3ccc(N4CCN(C)CC4)cc3)nc2n1-c1cccc(C(C)(C)O)n1 [AZD1775] (first compound max 10 µM, partner max 1 µM) | 0.0455 |  |  | 0.0397 | -0.0283 | 0.033 |  |  |  |  | 0.0171 | 0.121 |  | 0.0093 |  | -0.011 | 0.0209 |  |  | 
N#Cc1cnc(Nc2cc(NC[C@H]3CNCCO3)c(C(F)(F)F)cn2)cn1 [SRA737] + Nc1ccn([C@@H]2O[C@H](CO)[C@@H](O)C2(F)F)c(=O)n1 [Gemcitabine] (first compound max 10 µM, 7x7, partner max 0.3 µM) | 0.0398 |  |  | -0.0986 | 0.0442 | -0.0085 |  |  |  |  | 0.0488 | 0.123 |  | 0.0521 |  | 0.125 | 0.0301 |  |  | 
N#Cc1cnc(Nc2cc(NC[C@H]3CNCCO3)c(C(F)(F)F)cn2)cn1 [SRA737] + O=c1[nH]cc(F)c(=O)[nH]1 [5-Fluorouracil] (first compound max 10 µM, 7x7, partner max 20 µM) | -0.0149 |  |  | -0.0343 | 0.0703 | -0.0044 |  |  |  |  | 0.0235 | 0.0691 |  | -0.0012 |  | 0.0125 | -0.0757 |  |  | 
C[C@@H](c1ccc2nccn2c1)n1nnc2ncc(-c3cnn(C)c3)nc21 [Savolitinib] + CN(CC[C@H](CSC1=CC=CC=C1)NC2=C(C=C(C=C2)S(=O)(=O)NC(=O)C3=CC=C(C=C3)N4CCC(CC4)[C@H](C5=CC=CC=C5C6=CC=C(C=C6)Cl)O)S(=O)(=O)C(F)(F)F)CCO [AZD4320] (first compound max 1 µM, 7x7, partner max 1 µM) | -0.0463 | 0.0235 | -0.0534 | -0.0103 |  |  | -0.044 | -0.0354 | -0.0287 | -0.0374 |  |  | 0.0144 |  | -0.0555 |  |  | -0.0212 | -0.0035 | -0.08
